Results taken from US12110294B2, “CD73 compounds” (Gilead Sciences, Inc., priority 2020, dated 2024).
Read-outs that look alike come from different tables or passages of the source.

How the values were obtained:
CD73 [1] = biological target: T1, CD73 (Homo sapiens, UniProt P21589); assay: CD73 Biochemical IC50 Assay; details: final AMP 15 uM, final CD73 0.3 nM, 25 mM Tris pH 7.4, 5 mM MgCl2, no phosphate
T1 construct: purchased R&D system
T1 sequence (P21589 27-549): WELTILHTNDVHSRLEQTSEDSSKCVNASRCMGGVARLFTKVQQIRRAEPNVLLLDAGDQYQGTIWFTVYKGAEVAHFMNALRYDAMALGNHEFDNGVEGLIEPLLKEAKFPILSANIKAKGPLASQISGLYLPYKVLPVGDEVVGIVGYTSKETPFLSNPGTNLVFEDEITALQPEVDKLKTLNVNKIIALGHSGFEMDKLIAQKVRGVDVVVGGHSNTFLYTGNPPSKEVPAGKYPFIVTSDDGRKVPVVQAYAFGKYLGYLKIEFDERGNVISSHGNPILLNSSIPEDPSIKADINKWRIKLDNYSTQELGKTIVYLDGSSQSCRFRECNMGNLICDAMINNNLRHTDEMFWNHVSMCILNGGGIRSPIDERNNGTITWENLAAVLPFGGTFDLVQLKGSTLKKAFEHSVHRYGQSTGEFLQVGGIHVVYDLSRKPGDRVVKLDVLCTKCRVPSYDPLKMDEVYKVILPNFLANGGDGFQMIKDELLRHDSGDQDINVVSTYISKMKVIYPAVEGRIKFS
Procedure: CD73 Biochemical IC50 Assay
Compound serial dilutions were pre-spotted into Thermo Nunc assay plate. 50 μL CD73 enzyme buffer (CD73 purchased from R&D system=0.6 nM, 25 mM Tris, pH 7.4, 5 mM MgCl2) was added into the assay plate and incubated for 15 mins. […] The samples were run using Rapid fire.

[2] = biological target: T2, CD73 activity in MDA-MB-231-GFP cells (Homo sapiens, UniProt P21589); assay: MDA-MB-231 Cell Based CD73 Activity Assay; details: 10000 cells per well, RPMI medium with 10% human plasma, overnight compound treatment, AMP 200 μM
T2 construct: endogenous in cells; host or cells: MDA-MB-231-GFP cells
T2 sequence (P21589 27-549): T1 sequence (P21589 27-549)
Procedure: MDA-MB-231 Cell Based CD73 Activity Assay
MDA-MB-231-GFP cells were seeded in 384-well plates (Greiner 781946) at a density of 10000 cells per well in 50 μL of RPMI medium with 10% HP (human plasma). Cells were plated into assay plate with compounds pre-spotted, for an overnight compound treatment. 50 μL of 400 μM AMP (final concentration 200 μM) using a Bio-tek dispenser. Plates were incubated for 100 mins. […] The samples were run using Rapid fire.

CD73 [3] = biological target: T1, CD73; type: biochemical; details: 1 mM NaH2PO4 in enzyme buffer, final AMP 15 uM, final CD73 0.3 nM
[4] = biological target: T2, CD73 activity in MDA-MB-231-GFP cells; assay: MDA-MB-231 Cell Based CD73 Activity Assay (DMEM); details: 3000 cells per well, DMEM medium with 10% human plasma, overnight compound treatment, AMP 200 uM

| Structure (SMILES) | IC50 (CD73 [1]) | EC50 [2] | IC50 (CD73 [3]) | EC50 [4] |
| --- | --- | --- | --- | --- |
| O=c1[nH]cc(-c2cc([C@@H]3C[C@H]3c3ccc(F)cc3F)c3nccn3n2)c(=O)[nH]1 (racemic) [Example 31, 5-(8-((1S,2S)-2-(2,4-difluorophenyl)cyclopropyl)imidazo[1,2-b]pyridazin-6-yl)pyrimidine-2,4(1H,3H)-dione and 5-(8-((1R,2R)-2-(2,4-difluorophenyl)cyclopropyl)imidazo[1,2-b]pyridazin-6-yl)pyrimidine-2,4(1H,3H)-dione] | 0.00549 µM | 0.00384 µM | 0.00093 µM | 0.00483 µM |
| O=c1[nH]cc(-c2cc([C@@H]3C[C@H]3c3cccc(F)c3F)c3nccn3n2)c(=O)[nH]1 (racemic) [Example 32, 5-(8-((1S,2S)-2-(2,3-difluorophenyl)cyclopropyl)imidazo[1,2-b]pyridazin-6-yl)pyrimidine-2,4(1H,3H)-dione and 5-(8-((1R,2R)-2-(2,3-difluorophenyl)cyclopropyl)imidazo[1,2-b]pyridazin-6-yl)pyrimidine-2,4(1H,3H)-dione] | 0.0186 µM | 0.00684 µM | – | – |
| O=c1[nH]cc(-c2cc([C@@H]3C[C@H]3c3ccc(F)c(F)c3F)c3nccn3n2)c(=O)[nH]1 (racemic) [Example 34, 5-(8-((1S,2S)-2-(2,3,4-trifluorophenyl)cyclopropyl)imidazo[1,2-b]pyridazin-6-yl)pyrimidine-2,4(1H,3H)-dione and 5-(8-((1R,2R)-2-(2,3,4-trifluorophenyl)cyclopropyl)imidazo[1,2-b]pyridazin-6-yl)pyrimidine-2,4(1H,3H)-dione] | 0.0182 µM | 0.0113 µM | – | – |
| O=c1[nH]cc(-c2cc([C@@H]3C[C@H]3c3cc(F)c(F)c(F)c3)c3nccn3n2)c(=O)[nH]1 (racemic) [Example 36, 5-(8-((1S,2S)-2-(3,4,5-trifluorophenyl)cyclopropyl)imidazo[1,2-b]pyridazin-6-yl)pyrimidine-2,4(1H,3H)-dione and 5-(8-((1R,2R)-2-(3,4,5-trifluorophenyl)cyclopropyl)imidazo[1,2-b]pyridazin-6-yl)pyrimidine-2,4(1H,3H)-dione] | 0.0242 µM | 0.00651 µM | – | – |
| O=c1[nH]cc(-c2cc([C@H]3C[C@@H]3c3ccccc3)c3ncc(F)n3n2)c(=O)[nH]1 (racemic) [Example 87, 5-[3-fluoro-8-[(1S,2S)-2-phenylcyclopropyl]imidazo[1,2-b]pyridazin-6-yl]-1H-pyrimidine-2,4-dione and 5-[3-fluoro-8-[(1R,2R)-2-phenylcyclopropyl]imidazo[1,2-b]pyridazin-6-yl]-1H-pyrimidine-2,4-dione] | 0.0157 µM | 0.00324 µM | – | – |
| N#Cc1ccccc1[C@H]1C[C@@H]1c1cc(-c2c[nH]c(=O)[nH]c2=O)nn2ccnc12 [Example 49, 2-((1S,2S)-2-(6-(2,4-dioxo-1,2,3,4-tetrahydropyrimidin-5-yl)imidazo[1,2-b]pyridazin-8-yl)cyclopropyl)benzonitrile] | 0.0175 µM | 0.019 µM | – | – |
| O=c1[nH]cc(-c2cc(N3C[C@@H](F)[C@@H](F)C3)c3nccn3n2)c(=O)[nH]1 [Example 77, 5-[8-[(3S,4R)-3,4-difluoropyrrolidin-1-yl]imidazo[1,2-b]pyridazin-6-yl]-1H-pyrimidine-2,4-dione and 5-[8-[(3R,4S)-3,4-difluoropyrrolidin-1-yl]imidazo[1,2-b]pyridazin-6-yl]-1H-pyrimidine-2,4-dione] | 0.0226 µM | – | 0.0035 µM | – |
| COC(=O)c1ccccc1[C@H]1C[C@@H]1c1cc(-c2c[nH]c(=O)[nH]c2=O)nn2ccnc12 [Example 113, methyl 2-((1S,2S)-2-(6-(2,4-dioxo-1,2,3,4-tetrahydropyrimidin-5-yl)imidazo[1,2-b]pyridazin-8-yl)cyclopropyl)benzoate] | 0.147 µM | 0.21 µM | – | – |
| O=c1[nH]cc(-c2cc(N3CCC[C@H]3c3ccc(F)cc3)c3nccn3n2)c(=O)[nH]1 [Example 116, (S)-5-(8-(2-(4-fluorophenyl)pyrrolidin-1-yl)imidazo[1,2-b]pyridazin-6-yl)pyrimidine-2,4(1H,3H)-dione] | > 2.5 µM | 0.718 µM | – | – |

Further lines, results first:

| IC50 (CD73 [1]) | EC50 [2] | IC50 (CD73 [3]) | EC50 [4] | Structure (SMILES) |
| --- | --- | --- | --- | --- |
| 0.0168 µM | 0.00359 µM | – | – | O=c1[nH]cc(-c2cc([C@@H]3C[C@H]3c3ccccc3F)c3nccn3n2)c(=O)[nH]1 (racemic) [Example 28, 5-(8-((1S,2S)-2-(2-fluorophenyl)cyclopropyl)imidazo[1,2-b]pyridazin-6-yl)pyrimidine-2,4(1H,3H)-dione and 5-(8-((1R,2R)-2-(2-fluorophenyl)cyclopropyl)imidazo[1,2-b]pyridazin-6-yl)pyrimidine-2,4(1H,3H)-dione] |
| 0.0163 µM | 0.00708 µM | – | – | O=c1[nH]cc(-c2cc([C@H]3C[C@@H]3c3cccc(F)c3)c3nccn3n2)c(=O)[nH]1 (racemic) [Example 29, 5-(8-((1S,2S)-2-(3-fluorophenyl)cyclopropyl)imidazo[1,2-b]pyridazin-6-yl)pyrimidine-2,4(1H,3H)-dione and 5-(8-((1R,2R)-2-(3-fluorophenyl)cyclopropyl)imidazo[1,2-b]pyridazin-6-yl)pyrimidine-2,4(1H,3H)-dione] |
| 0.00236 µM | 0.00256 µM | 0.00208 µM | 0.00511 µM | O=c1[nH]cc(-c2cc([C@@H]3C[C@H]3c3ccc(F)cc3)c3nccn3n2)c(=O)[nH]1 (racemic) [Example 30, 5-(8-((1S,2S)-2-(4-fluorophenyl)cyclopropyl)imidazo[1,2-b]pyridazin-6-yl)pyrimidine-2,4(1H,3H)-dione and 5-(8-((1R,2R)-2-(4-fluorophenyl)cyclopropyl)imidazo[1,2-b]pyridazin-6-yl)pyrimidine-2,4(1H,3H)-dione] |
| 0.0143 µM | 0.00729 µM | – | – | O=c1[nH]cc(-c2cc([C@@H]3C[C@H]3c3cccc(Cl)c3)c3nccn3n2)c(=O)[nH]1 (racemic) [Example 38, 5-(8-((1S,2S)-2-(3-chlorophenyl)cyclopropyl)imidazo[1,2-b]pyridazin-6-yl)pyrimidine-2,4(1H,3H)-dione and 5-(8-((1R,2R)-2-(3-chlorophenyl)cyclopropyl)imidazo[1,2-b]pyridazin-6-yl)pyrimidine-2,4(1H,3H)-dione] |
| 0.196 µM | 0.0232 µM | – | – | O=c1[nH]cc(-c2cc([C@H]3C[C@@H]3c3ccccc3)c3nccn3n2)c(=O)[nH]1 (racemic) [Example 104, 5-(8-((2S,2S)-2-phenylcyclopropyl)imidazo[1,2-b]pyridazin-6-yl)pyrimidine-2,4-(1H,3H)-dione and 5-(8-((1R,2R)-2-phenylcyclopropyl)imidazo[1,2-b]pyridazin-6-yl)pyrimidine-2,4-(1H,3H)-dione] |
| 0.0205 µM | 0.00223 µM | – | – | COc1ccc([C@H]2C[C@@H]2c2cc(-c3c[nH]c(=O)[nH]c3=O)nn3ccnc23)cc1 [Example 112, 5-(8-((1S,2S)-2-(4-methoxyphenyl)cyclopropyl)imidazo[1,2-b]pyridazin-6-yl)pyrimidine-2,4(1H,3H)-dione] |
| 0.0311 µM | 0.00538 µM | – | – | COc1cccc([C@H]2C[C@@H]2c2cc(-c3c[nH]c(=O)[nH]c3=O)nn3ccnc23)c1 [Example 114, 5-(8-((1S,2S)-2-(3-methoxyphenyl)cyclopropyl)imidazo[1,2-b]pyridazin-6-yl)pyrimidine-2,4(1H,3H)-dione] |
